One may read the chromatographic logP as lipophilicity estimated from chromatographic retention. A lower chromatographic logP goes with a more hydrophilic compound. The term log P denotes the decadic logarithm of the partition coefficient of the neutral form, usually between octanol and water. Read a high log P as a more lipophilic compound.

The results in this text go back to patent US9802899B2, “Heterocyclic compounds as pesticides” (BAYER CROPSCIENCE AG, priority 2012, dated 2017).

Read-outs that look alike come from different tables or passages of the source.

The subject of one data set is Phaedon cochleariae. Description: Phaedon cochleariae spray test (PHAECO). It is filed as in vivo. As to conditions: foliar, 168 h, application rate 500 g/ha, larvae on Chinese cabbage leaf discs, after 7 days, read-out: efficacy. Here is the method: Phaedon cochleariae Spray Test (PHAECO)
(§1) Solvents: 78.0 parts by weight of acetone • • 1.5 parts by weight of dimethylformamide
(§2) Emulsifier: 0.5 part by weight of alkylaryl polyglycol ether
(§3) To produce a suitable preparation of active compound, 1 part by weight of active compound is mixed with the stated amounts of solvents and emulsifier, and the concentrate is diluted with emulsifier-containing water to the desired concentration.
After 7 days, the efficacy in % is determined. 100% means that all of the beetle larvae have been killed; 0% means that none of the beetle larvae have been killed.

Data set [1] can be described thus: Determination of the log P values by HPLC (formic acid method). It is filed as physicochemical. As to conditions: reversed-phase column (C 18), acidic range (pH 3.4), 55° C.; for chromatographic logP: reversed-phase HPLC column (C 18). Here is the method:
1) Description of Method for Determination of the Log P Values (Formic Acid Method)
Eluents for determination in the acidic range (pH 3.4):
Eluent A: acetonitrile+1 ml of formic acid/liter. Eluent B: water+0.9 ml of formic acid/liter.
The lambda max values were determined in the maxima of the chromatographic signals using the UV spectra from 200 nm to 400 nm.

The test system of another data set is Spodoptera frugiperda. Description: Spodoptera frugiperda spray test (SPODFR). Type of data set: in vivo. As to conditions: caterpillars on maize leaf discs, after 7 days. Here is the method: Spodoptera frugiperda Spray Test (SPODFR)
as §1, §2, §3
Leaf discs of maize (Zea mays) are sprayed with an active compound formulation of the desired concentration and, after drying, populated with caterpillars of the armyworm (Spodoptera frugiperda).
After 7 days, the efficacy in % is determined. 100% means that all of the caterpillars have been killed; 0% means that none of the caterpillars have been killed.

In another data set the test system is Myzus persicae. Description: Myzus persicae spray test (MYZUPE). Type of data set: in vivo. As to conditions: Chinese cabbage leaf discs, after 6 days. Here is the method:
Myzus persicae Spray Test (MYZUPE)
Solvents: 78 parts by weight of acetone • • 1.5 parts by weight of dimethylformamide
as §2, §3
Discs of Chinese cabbage leaves (Brassica pekinensis) infested by all stages of the green peach aphid (Myzus persicae) are sprayed with an active compound preparation of the desired concentration.
After 6 days, the efficacy in % is determined 100% here means that all of the aphids have been killed; 0% means that no aphids have been killed.

The next data set has as its system Lucilia cuprina larvae. Description: Lucilia cuprina test (LUCICU). Type of data set: in vivo. As to conditions: application rate 100 ppm; larvae on treated horse meat; after 2 days. The protocol: Lucilia cuprina Test (LUCICU)
(§4) Solvent: dimethyl sulphoxide
To produce a suitable preparation of active compound, 10 mg of active compound are mixed with 0.5 ml of dimethyl sulphoxide, and the concentrate is diluted with water to the desired concentration.
Vessels containing horse meat treated with the active compound preparation of the desired concentration are populated with about 20 Lucilia cuprina larvae.
After 2 days, the kill in % is determined 100% means that all of the larvae have been killed; 0% means that none of the larvae have been killed.

A further data set deals with Cooperia curticei. Description: Cooperia curticei test (COOPCU). Type of data set: in vivo. As to conditions: Cooperia curticei, 120 h, read-out: efficacy (kill). Here is the method:
Cooperia curticei Test (COOPCU)
as §4
To produce a suitable preparation of active compound, 10 mg of active compound are mixed with 0.5 ml of dimethyl sulphoxide, and the concentrate is diluted with Ringer solution to the desired concentration.
Vessels containing the active compound preparation of the desired concentration are populated with about 40 nematode larvae (Cooperia curticei).
After 5 days, the kill in % is determined 100% means that all of the larvae have been killed; 0% means that none of the larvae have been killed.

The test system of the next data set is Meloidogyne incognita. Description: Meloidogyne incognita test (MELGIN). As to conditions: Meloidogyne incognita, 336 h; application rate 20 ppm; lettuce in sand; after 14 days; read-out: nematicidal effect (formation of galls). It is filed as in vivo. The protocol: Meloidogyne incognita Test (MELGIN)
Solvent: 125.0 parts by weight of acetone
To prepare a suitable active compound preparation, 1 part by weight of active compound is mixed with the stated amount of solvent and the concentrate is diluted with water to the desired concentration.
Vessels are filled with sand, active compound solution, an egg/larvae suspension of the root-knot nematode (Meloidogyne incognita) and lettuce seeds. The lettuce seeds germinate and the plants develop. On the roots, galls are formed.
After 14 days, the nematicidal effect in % is determined by the formation of galls. 100% means that no galls have been found; 0% means that the number of galls on the treated plants corresponds to the untreated control.

For the molecule `O=C(Nc1nn(-c2ccccc2Cl)cc1I)c1ccccc1C(F)(F)F` [Compound I-1-17, N-[4-Iodo-1-(2-chlorophenyl)-1H-pyrazol-3-yl]-2-(trifluoromethyl)benzamide], in the data set with Phaedon cochleariae, the pest or weed control at 500 g/ha was determined as 100%. The same molecule displayed a chromatographic logP in data set [1] of 3.16. The molecule also had an efficacy in the data set on Spodoptera frugiperda (application rate 500 g/ha) of 83%.
As for `N#CCN(C(=O)c1ccccc1Cl)c1ccn(-c2ccccc2Cl)n1` [Compound I-1-25], in data set [1], the log partition coefficient (log P) stood at 3.04. For the same molecule, the efficacy in the data set on Myzus persicae (application rate 500 g/ha) came out at 80%.
Turning to `O=C(Nc1nn(-c2ccccc2Cl)cc1Br)c1ccccc1Cl` [Compound I-1-29], in data set [1], the “log P” value came to 2.99. Besides, the efficacy in the data set on Spodoptera frugiperda (application rate 500 g/ha) worked out at 83%.
The matching figures for `O=C(Nc1nn(-c2ccccc2Cl)cc1Cl)c1ccccc1I` [Compound I-1-34]: 3.10 and 83%.
As to `Cc1cc(NC(=O)c2ccccc2I)nn1-c1ccccc1Cl` [Compound I-1-35], in data set [1], the “log P” value is given as 2.53. In the data set with Spodoptera frugiperda (application rate 500 g/ha), this molecule registered an efficacy of 100%.
With `O=C(Nc1ccn(-c2cccc(F)c2F)n1)c1ccccc1Br` [Compound I-1-63, 2-Bromo-N-[1-(2,3-difluorophenyl)-1H-pyrazol-3-yl]benzamide], the “efficacy (kill)” value in the data set on Lucilia cuprina larvae is on record as 80%. Further, the pest or weed control at 20 ppm in the data set on Cooperia curticei (application rate 20 ppm, nematode larvae, after 5 days) was 90%. In addition, the pest or weed control at 500 g/ha with Phaedon cochleariae was determined as 100%. In data set [1], this molecule came in with a chromatographic logP of 2.97. Further, the efficacy with Myzus persicae (application rate 500 g/ha) is reported as 90%.
Regarding `CS(=O)(=O)c1ccccc1C(=O)Nc1ccn(-c2c(F)cccc2F)n1` [Compound I-1-80], the “log P” value in data set [1] stood at 1.95. This molecule also gave an efficacy with Myzus persicae (application rate 500 g/ha) of 90%.
Take `O=C(Nc1ccn(-c2c(F)cccc2F)n1)c1ccccc1[N+](=O)[O-]` [Compound I-1-86]: the lipophilicity (log P) in data set [1] was 2.20. For the same molecule, in the data set on Myzus persicae (application rate 20 g/ha), the efficacy is 90%.
As to `O=C(Nc1ccn(-c2cc(Cl)ccc2Cl)n1)c1ccccc1Cl` [Compound I-1-118], the “log P” value in data set [1] was 3.36. The molecule also gave an efficacy in the data set on Spodoptera frugiperda (application rate 100 g/ha) of 83%.
For the molecule `O=C(Nc1ccn(-c2ncccc2F)n1)c1cccnc1C(F)(F)F` [Compound I-1-133], the lipophilicity (log P) in data set [1] stood at 1.83. Also, the efficacy with Myzus persicae (application rate 500 g/ha) is given as 90%.
Consider `O=C(Nc1ccn(-c2ncccc2Cl)n1)c1ccccc1Cl` [Compound I-1-136], for which the “log P” value in data set [1] amounted to 2.21. The same molecule displayed an efficacy in the data set with Spodoptera frugiperda (application rate 500 g/ha) of 100%.
`O=C(Nc1ccn(-c2ncc(F)cc2F)n1)c1ccccc1I` [Compound I-1-145]: the “efficacy (kill)” value in the data set with Lucilia cuprina larvae was 90%. For the same molecule, the log partition coefficient (log P) in data set [1] is 2.45. Besides, the efficacy with Myzus persicae (application rate 500 g/ha) turned out to be 90%.
In the case of `N#CCN(C(=O)c1ccccc1C(F)(F)F)c1ccn(-c2c(F)cccc2F)n1` [Compound I-1-259], the log partition coefficient (log P) in data set [1] is on record as 2.90. The efficacy with Spodoptera frugiperda (application rate 500 g/ha) is 100%.
On to `COc1ccccc1C(=O)Nc1ccn(-c2c(F)cccc2F)n1` [Compound I-1-280], for which the “log P” value in data set [1] is recorded as 2.75. The efficacy in the data set on Myzus persicae (application rate 500 g/ha) was 90%.
Regarding `O=C(Nc1ccn(-c2cncc(F)n2)n1)c1c(F)cccc1F` [Compound I-1-403], the “log P” value in data set [1] was determined as 2.32. Also, in the data set on Spodoptera frugiperda (application rate 500 g/ha), the efficacy is given as 100%.
Consider `O=C(Nc1cnn(-c2c(F)cccc2F)n1)c1c(F)cccc1C(F)(F)F` [Compound I-2-39], for which, in data set [1], the “log P” value is 2.88. The efficacy with Myzus persicae (application rate 500 g/ha) is 90%.
As to `O=C(Nc1cnn(-c2c(F)cccc2F)n1)c1ccccc1I` [Compound I-2-41], in data set [1], the “log P” value is on record as 2.81. Also, the efficacy in the data set with Spodoptera frugiperda (application rate 500 g/ha) is 100%.
Take `O=C(Nc1cnn(-c2ncccc2Cl)n1)c1ccsc1I` [Compound I-2-58]: in data set [1], the “log P” value is reported as 2.44. Further, the efficacy in the data set with Myzus persicae (application rate 500 g/ha) stood at 90%.
Turning to `O=C(Nc1ccn(-c2c(F)cccc2F)c1)c1ccccc1C(F)(F)F` [Compound I-3-1, N-[1-(2,6-Difluorophenyl)-1H-pyrrol-3-yl]-2-(trifluoromethyl)benzamide], the “efficacy (kill)” value in the data set on Lucilia cuprina larvae is given as 80%. Besides, the pest or weed control at 20 ppm in the data set with Cooperia curticei amounted to 100%; with Meloidogyne incognita, 90%. Besides, the pest or weed control at 500 g/ha in the data set on Phaedon cochleariae came out at 100%. For the same molecule, in data set [1], the chromatographic logP was 2.96.
